Data from US20220195533A1, “ARYL HYDROCARBON RECEPTOR (AHR) ACTIVATION SIGNATURE AND METHODS FOR DETERMINING AHR SIGNALING STATUS” (DEUTSCHES KREBSFORSCHUNGSZENTRUM STIFTUNG DES OFFENTLICHEN …, priority 2019, published 2022).

System: AHR
Assay: AHR signature gene set testing in tumor tissue of advanced melanoma patients after immune checkpoint inhibition
Assay type: in vivo, human
Details: tumor tissue of advanced melanoma patients after treatment (GSE91061), FIG. 31C
From the text: The eBayes adjusted moderated t-statistic was applied for differential gene expression using limma (Ritchie, M E, et al. (2015). limma powers differential expression analyses for RNA-sequencing and microarray studies. Nucleic Acids Research 43(7), e47) and limma-trend (Phipson, B, et al. (2016). Robust hyperparameter estimation protects against hypervariable genes and improves power to detect differential expression. Annals of Applied Statistics 10(2), 946-963) or the limma RNA-seq pipeline (Ritchie, M E, et al. (2015). limma powers differential expression analyses for RNA-sequencing and microarray studies. Nucleic Acids Research 43(7), e47). Batch effects, when present, were accounted for in the linear regression. Gene set testing of AHR activation was performed using roast (Wu, D., et al. (2010). ROAST: rotation gene set tests for complex microarray experiments. Bioinformatics 26, 2176-2182).
Using an AHR signature comprising of all the biomarkers in Table 1, allows the detection of AHR modulation caused by both direct and indirect AHR modulators in a cell type and ligand type independent fashion.

## Nivolumab: immune checkpoint inhibition; indirect modulation of AHR through immunotherapy
  modulation of AHR detected with AHR signature of all Table 1 biomarkers: indirect modulation of AHR
